For data set [1], the target named is T1, M. tuberculosis MurE (Mycobacterium tuberculosis, UniProt P9WJL3).
T1 sequence (P9WJL3 1-535): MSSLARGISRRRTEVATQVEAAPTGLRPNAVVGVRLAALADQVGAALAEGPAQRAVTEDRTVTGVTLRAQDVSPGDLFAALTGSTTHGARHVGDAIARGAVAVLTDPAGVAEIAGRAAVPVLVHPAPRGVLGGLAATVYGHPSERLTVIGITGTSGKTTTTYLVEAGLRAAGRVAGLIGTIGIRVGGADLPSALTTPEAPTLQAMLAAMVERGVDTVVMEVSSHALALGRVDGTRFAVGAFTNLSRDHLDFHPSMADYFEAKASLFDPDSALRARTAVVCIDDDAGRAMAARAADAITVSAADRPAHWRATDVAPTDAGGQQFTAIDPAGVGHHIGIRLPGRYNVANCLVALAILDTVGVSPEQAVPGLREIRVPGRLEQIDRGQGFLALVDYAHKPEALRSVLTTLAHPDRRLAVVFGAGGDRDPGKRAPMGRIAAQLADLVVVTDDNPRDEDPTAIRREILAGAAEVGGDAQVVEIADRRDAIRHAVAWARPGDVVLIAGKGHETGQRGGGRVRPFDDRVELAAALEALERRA
The data set can be described thus: MurE ligase inhibition, phosphate colorimetric detection method. Format: biochemical.

Another data set deals with M. phlei. The data set can be described thus: Microdilution MIC assay in cation-adjusted Mueller–Hinton broth. Particulars: Mycolicibacterium phlei, read-out: MIC M. phlei. Type of data set: cell-based, Mycobacterium phlei.
Data set [2] has as its target T1, M. tuberculosis MurE. Kind of data set: MurE ligase inhibition, HPLC quantification of UDP-MurNAc-tripeptide. Type of data set: biochemical.
The next data set concerns RAW264.7 macrophages. Particulars: RAW264.7, 48 h, ±SD.
In the next data set the test system is M. smegmatis mc^2155. The data set can be described thus: microbe, parasite or virus in culture. Type of data set: cell-based, Mycobacterium smegmatis. Particulars: Mycolicibacterium smegmatis, MC^2155, 72 h, read-out: MIC M. smegmatis mc^2155.
The next data set deals with M. fortuitum. Kind of data set: Microdilution MIC assay in cation-adjusted Mueller–Hinton broth. Type of data set: cell-based, Mycobacterium fortuitum. To be noted: Mycolicibacterium fortuitum, read-out: MIC M. fortuitum. On the technique in general: In broth dilution the organism is exposed to a series of concentrations in liquid medium.
Another data set deals with EMRSA-15. The data set can be described thus: Microdilution MIC assay in Mueller–Hinton broth. Type of data set: cell-based. Particulars: Staphylococcus aureus, read-out: MIC S. aureus EMRSA-15.
A further data set relates to EMRSA-16. Kind of data set: Microdilution MIC assay in Mueller–Hinton broth. Type of data set: cell-based. Particulars: Staphylococcus aureus, read-out: MIC S. aureus EMRSA-16.

Values after ≈ are worked out from the molar mass of the structure shown. Values joined by “and” are separate entries in the source; they are usually repeats but may differ in a detail not shown here. Equal entries are not always repeated. Bounds are passed on as bounds.

Consider `NNC(=O)c1ccncc1` [Isoniazid], for which the IC50 against M. tuberculosis MurE [1] and at M. tuberculosis MurE [2] was > 1000 µM in each case. Also, the MIC was 4 µg/mL and 15 µM with M. phlei; 5 µg/mL and 18.5 µM in the data set with M. smegmatis mc^2155; 1 µg/mL and 3.65 µM in the data set with M. fortuitum. For the same molecule, in the data set on RAW264.7 macrophages, the “Murine macrophages GIC50 (50% growth inhibition concentration)” value is listed as >500 mg/L.
Turning to `CCn1cc(C(=O)O)c(=O)c2cc(F)c(N3CCNCC3)cc21` [norfloxacin], the MIC came out at 0.5 µg/mL (≈ 1.57 µM) in the data set on EMRSA-15 and 256 µg/mL (≈ 802 µM) in the data set on EMRSA-16.

The record behind these values is paper PMC3133487 (Journal of Antimicrobial Chemotherapy, 2011).
